Laboratory results reported in patent publication US5158948A (Abbott Laboratories, priority 1991, dated 1992).
Structures can show the parent of a compound that is named as a salt. Where two headings read alike, the source gives them in different places.

How the values were obtained:
dopamine D-1 receptor [1] = target: T1, dopamine D-1 receptor (Rattus norvegicus, UniProt P18901); assay: D-1 receptor binding assay, competition with [^125 I]SCH-23982 in homogenized rat caudate
Excerpt: The compounds compete with the radiolabeled ligand for occupancy of the receptors and the molar potency of each compound was quantified.

dopamine D-2 receptor = target: T2, dopamine D-2 receptor (Rattus norvegicus, UniProt P61169); assay: D-2 receptor binding assay, competition with [^3 H]-spiperone in homogenized rat caudate; conditions: rat caudate homogenate
T2 construct: Homogenized rat caudate was the source of the D-2 receptors; from tissue; host or cells: rat caudate homogenate
T2 sequence (P61169 whole entry): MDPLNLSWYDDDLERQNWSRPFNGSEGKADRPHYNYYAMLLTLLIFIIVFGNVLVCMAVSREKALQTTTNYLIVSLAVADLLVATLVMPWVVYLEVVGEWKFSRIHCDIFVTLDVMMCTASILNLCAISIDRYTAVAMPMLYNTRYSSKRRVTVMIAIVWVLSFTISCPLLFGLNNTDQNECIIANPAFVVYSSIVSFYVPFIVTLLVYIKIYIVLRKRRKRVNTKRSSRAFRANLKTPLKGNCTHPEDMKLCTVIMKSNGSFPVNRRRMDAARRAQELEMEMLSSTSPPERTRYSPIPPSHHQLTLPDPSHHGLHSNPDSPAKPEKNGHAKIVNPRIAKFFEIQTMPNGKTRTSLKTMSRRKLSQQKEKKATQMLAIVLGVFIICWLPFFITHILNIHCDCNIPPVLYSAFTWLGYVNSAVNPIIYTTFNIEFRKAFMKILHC
Experimental: Homogenized rat caudate was the source of the D-2 receptors. […] A. Frey, T. E. Cote, C. […] The molar affinity of the compound for the receptor binding site was calculated by the same method used for the D-1 receptor assay, assuming a competitive interaction between the compound and the radiolabeled ligand.

D-1 receptor = assay: D-1 antagonist activity in adenylate cyclase assay (antagonism of dopamine-induced increase in cAMP); type: biochemical; conditions: 10 μM dopamine; goldfish retina or rat striatum homogenate
Experimental: The functional activity of a compound was determined by assaying, in vitro, its ability to either stimulate the enzyme adenylate cyclase to produce more cAMP (agonist activity) or to antagonize a dopamine-induced increase in cAMP levels. The protocol for the adenylate cyclase assays was described by K. J. Watling and J. E. Dowling in J Neurochemistry, 1981, 36: 599 and by J. W. Kebabian, et al. in Proc Natl Acad Sci, USA, 1972, 69: 2145. In order to determine agonist activity, cell-free tissue homogenates are incubated in an ionic buffer solution containing ATP and the compound being evaluated. The tissue was obtained from either goldfish retina or rat striatum.
The Ki values were calculated as described by Y. C.

dopamine D-1 receptor [2] = target: T1, dopamine D-1 receptor; assay: Rotation behavior: block of A-68930-induced rotation in rats with unilateral 6-hydroxydopamine lesion; type: in vivo; parameters: Homogenized rat caudate was incubated; from tissue; host or cells: rat caudate homogenate; conditions: subcutaneous, A-68930 1.0 μmol/kg s.c.
[3] = dose 10.0 μmol/kg, saline 1118 (Example 18), 1011 (Example 27)

T1 sequence (P18901 whole entry): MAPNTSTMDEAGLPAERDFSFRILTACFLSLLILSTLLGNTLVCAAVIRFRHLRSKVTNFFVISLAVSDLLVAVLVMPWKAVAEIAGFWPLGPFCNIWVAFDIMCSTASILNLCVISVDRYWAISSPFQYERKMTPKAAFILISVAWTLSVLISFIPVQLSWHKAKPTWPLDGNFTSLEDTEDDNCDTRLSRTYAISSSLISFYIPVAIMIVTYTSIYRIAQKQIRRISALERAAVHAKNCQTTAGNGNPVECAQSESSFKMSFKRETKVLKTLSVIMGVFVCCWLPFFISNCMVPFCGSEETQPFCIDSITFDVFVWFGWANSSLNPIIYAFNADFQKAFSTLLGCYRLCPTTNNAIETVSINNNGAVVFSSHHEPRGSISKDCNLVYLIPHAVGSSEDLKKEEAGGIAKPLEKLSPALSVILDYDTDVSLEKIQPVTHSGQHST

| Compound | Ki (dopamine D-1 receptor [1]) [nM] | Ki (dopamine D-2 receptor) [nM] | IC50 (D-1 receptor) [nM] | Ki (D-1 receptor) [nM] | Ki (dopamine D-1 receptor [1]; read-out: D-1 Ki, rat caudate homogenate, [^125 I]SCH-23982) [nM] | Number of Rotations/2 h (dopamine D-1 receptor [2]; dose 3.2 μmol/kg, saline group 1118) [Rotations/2 h] | Number of Rotations/2 h (dopamine D-1 receptor [2]; [3]) [Rotations/2 h] | Number of Rotations/2 h (dopamine D-1 receptor [2]; dose 32.0 μmol/kg, saline group 1118) [Rotations/2 h] | Number of Rotations/2 h (dopamine D-1 receptor [2]; dose 3.0 μmol/kg, saline group 1011) [Rotations/2 h] | Number of Rotations/2 h (dopamine D-1 receptor [2]; dose 30.0 μmol/kg, saline group 1011) [Rotations/2 h] |
| --- | --- | --- | --- | --- | --- | --- | --- | --- | --- | --- |
| COc1cc2c(cc1O)C1(CCCc3ccccc31)CNCC2 (centres unmarked) [Example 9, 8-Hydroxy-7-methoxy-1-(spiro-1'-1',2',3',4'-tetrahydronaphthalene)-2,3,4,5-tetrahydro-1H-3-benzazepine hydrochloride] | 2610 | > 100000 | 15700 | 2730 | – | – | – | – | – | – |
| COc1cc2c(cc1O)C1(CCCc3ccccc31)CN(C)CC2 (centres unmarked) [Example 10, 8-Hydroxy-7-methoxy-3-methyl-1-(spiro-1'-1',2',3',4'-tetrahydronaphthalene)-2,3,4,5-tetrahydro-1H-3-benzazepine hydrochloride] | 50 | 562000 | 320 | 60 | – | – | – | – | – | – |
| CSc1cc2c(cc1O)C1(CCCc3ccccc31)CN(C)CC2 (centres unmarked) [Example 11, 8-Hydroxy-7-(methylthio)-3-methyl-1-(spiro-1'-1',2',3',4'-tetrahydronaphthalene)-2,3,4,5-tetrahydro-1H-3-benzazepine hydrochloride] | 110 | 6800 | 230 | 40 | – | – | – | – | – | – |
| Oc1ccc2c(c1)C1(CCc3ccccc31)CNCC2 (centres unmarked) [Example 13, 8-Hydroxy-1-(spiro-1'-indan)-2,3,4,5-tetrahydro-1H-3-benzazepine hydrobromide] | 15900 | > 100000 | – | – | – | – | – | – | – | – |
| CN1CCc2ccc(O)cc2C2(CCc3ccccc32)C1 (centres unmarked) [Example 14, 8-Hydroxy-3-methyl-1-(spiro-1'-indan)-2,3,4,5-tetrahydro-1H-3-benzazepine hydrobromide] | 410 | > 100000 | 580 | 100 | – | – | – | – | – | – |
| Oc1cc2c(cc1O)C1(CCc3ccccc31)CNCC2 (centres unmarked) [Example 15, 7.8-Dihydroxy-1-(spiro-1'-indan)-2,3,4,5-tetrahydro-1H-3-benzazepine hydrobromide] | – | > 100000 | – | – | 650 | – | – | – | – | – |
| CN1CCc2cc(O)c(O)cc2C2(CCc3ccccc32)C1 (centres unmarked) [Example 16, 7,8-Dihydroxy-3-methyl-1-(spiro-1'-indan)-2,3,4,5-tetrahydro-1H-3-benzazepine formate] | 330 | 5500 | 510 | 90 | – | – | – | – | – | – |
| Oc1cc2c(cc1Br)CCNCC21CCc2ccccc21 (centres unmarked) [Example 17, 7-Bromo-8-hydroxy-1-(spiro-1'-indan)-2,3,4,5-tetrahydro-1H-2,3,4,5-tetrahydro-1H-3-benzazepine hydrochloride] | 310 | 18000 | 830 | 140 | – | – | – | – | – | – |
| CN1CCc2cc(Br)c(O)cc2C2(CCc3ccccc32)C1 (centres unmarked) [Example 18, 7-Bromo-8-hydroxy-3-methyl-1-(spiro-1'-indan)-2,3,4,5-tetrahydro-1H-3-benzazepine hydrochloride] | 10 | 5900 | 50 | 10 | – | 491 | 412 | 154 | – | – |
| CN1CCc2cc([N+](=O)[O-])c(O)cc2C2(CCc3ccccc32)C1 (centres unmarked) [Example 21, 8-Hydroxy-7-nitro-3-methyl-1-(spiro-1'-indan)-2,3,4,5-tetrahydro-1H-3-benzazepine hydrochloride] | 1320 | 39200 | 1380 | 240 | – | – | – | – | – | – |
| COc1cc2c(cc1O)C1(CCc3ccccc31)CNCC2 (centres unmarked) [Example 24, 8-Hydroxy-7-methoxy-1-(spiro-1'-indan)-2,3,4,5-tetrahydro-1H-3-benzazepine hydrochloride] | 810 | > 100000 | 530 | 130 | – | – | – | – | – | – |
| COc1cc2c(cc1O)C1(CCc3ccccc31)CN(C)CC2 (centres unmarked) [Example 25, 8-Hydroxy-7-methoxy-3-methyl-1-(spiro-1'-indan)-2,3,4,5-tetrahydro-1H-3-benzazepine hydrochloride] | 160 | 9500 | 130 | 20 | – | – | – | – | – | – |
| Oc1cc2c(cc1O)C1(CCCc3ccccc31)CNCC2 (centres unmarked) [Example 26, 7.8-Dihydroxy-1-(spiro-1'-1',2', 3',4'-tetrahydronapthalene)-2,3,4,5-tetrahydro-1H-3-benzazepine hydrobromide] | 16200 | > 100000 | – | – | – | – | – | – | – | – |
| CN1CCc2cc(O)c(O)cc2C2(CCCc3ccccc32)C1 (centres unmarked) [Example 27, 7,8-Dihydroxy-3-methyl-1-(spiro-1'-1',2',3',4'-tetrahydronapthalene)-2,3,4,5-tetrahydro-1H-3-benzazepine hydrobromide] | 840 | > 100000 | 2290 | 400 | – | – | 652 | – | 913 | 119 |
| Oc1ccc2c(c1)C1(CCCc3ccccc31)CNCC2 (centres unmarked) [Example 28, 8-Hydroxy-1-(spiro-1'-1',2',3',4'-tetrahydronapthalene)-2,3,4,5-tetrahydro-1H-3-benzazepine hydrochloride] | 23000 | 136000 | – | – | – | – | – | – | – | – |
| CN1CCc2ccc(O)cc2C2(CCCc3ccccc32)C1 (centres unmarked) [Example 29, 8-Hydroxy-3-methyl-1-(spiro-1'-1',2',3',4'-tetrahydronapthalene)-2,3,4,5-tetrahydro-1H-3-benzazepine hydrochloride] | 440 | 112000 | 4240 | 740 | – | – | – | – | – | – |
| Oc1cc2c(cc1Br)CCNCC21CCCc2ccccc21 (centres unmarked) [Example 30, 7-Bromo-8-hydroxy-1-(spiro-1'-1',2',3',4'-tetrahydronapthalene)-2,3,4,5-tetrahydro-1H-3-benzazepine hydrochloride] | 680 | 14600 | 920 | 160 | – | – | – | – | – | – |
| CN1CCc2cc(Br)c(O)cc2C2(CCCc3ccccc32)C1 (centres unmarked) [Example 31, 7-Bromo-8-hydroxy-3-methyl-1-(spiro-1'-1',2',3',4'-tetrahydronapthalene)-2,3,4,5-tetrahydro-1H-3-benzazepine hydrochloride] | 30 | 10100 | 140 | 20 | – | – | – | – | – | – |
| COc1cc2c(cc1O)C1(CCCCc3ccccc31)CN(C)CC2 (centres unmarked) [Example 32, 8-Hydroxy-7-methoxy-3-methyl-1-(spiro-5'-6',7',8',9'-tetrahydro-5'H-benzocycloheptene)-2,3,4,5-tetrahydro-1H-3-benzazepine hydrochloride] | 1500 | 112000 | 3240 | 560 | – | – | – | – | – | – |
| CN1CCc2ccc(O)cc2C2(CCCCc3ccccc32)C1 (centres unmarked) [Example 33, 8-Hydroxy-3-methyl-1-(spiro-5'-6',7',8',9'-tetrahydro-5'H-benzocycloheptene)-2,3,4,5-tetrahydro-1H-3-benzazepine hydrochloride] | 3410 | 8800 | – | – | – | – | – | – | – | – |
| CN1CCc2cc(O)c(O)cc2C2(CCCCc3ccccc32)C1 (centres unmarked) [Example 34, 7.8-Dihydroxy-3-methyl-1-(spiro-5'-6',7',8',9'-tetrahydro-5'H-benzocycloheptene)-2,3,4,5-tetrahydro-1H-3-benzazepine hydrobromide] | 8000 | 4200 | – | – | – | – | – | – | – | – |
| CN1CCc2cc(Br)c(O)cc2C2(CCCCc3ccccc32)C1 (centres unmarked) [Example 35, 7-Bromo-8-hydroxy-3-methyl-1-(spiro-5'-6',7',8',9'-tetrahydro-5'H-benzocycloheptene)-2,3,4,5-tetrahydro-1H-3-benzazepine hydrochloride] | 940 | 7500 | – | – | – | – | – | – | – | – |
| COc1cc2c(cc1O)C1(CCOc3ccccc31)CN(C)CC2 (centres unmarked) [Example 135, 8-Hydroxy-7-methoxy-3-methyl-1-(spiro-4'-(3',4'-dihydro-2'H-1'-benzopyran))-2,3,4,5-tetrahydro-1H-3-benzazepine hydrochloride] | 160 | 660 | 960 | 170 | – | – | – | – | – | – |
| CN1CCc2ccc(O)cc2C2(CCOc3ccccc32)C1 (centres unmarked) [Example 136, 8-Hydroxy-3-methyl-1-(spiro-4'-(3',4'-dihydro-2'-H-1'-benzopyran))-2,3,4,5-tetrahydro-1H-3-benzazepine hydrochloride] | 1670 | > 100000 | 4340 | 750 | – | – | – | – | – | – |
| CN1CCc2cc(Br)c(O)cc2C2(CCOc3ccccc32)C1 (centres unmarked) [Example 137, 7-Bromo-8-hydroxy-3-methyl-1-(spiro-4'-(3',4'-dihydro-2'H-1'-benzopyran))-2,3,4,5-tetrahydro-1H-3-benzazepine hydrochloride] | 20 | > 100000 | 140 | 30 | – | – | – | – | – | – |
